Ten compounds from patent publication US7745390B2, “Antimicrobial peptides” (priority 2005, dated 2010) can be followed below.

In test [1] the test system is bacteria. Description: Activity in DMEM and RPMI media (lysis of bacteria). Details: key to Active in DMEM: YES: Active in DMEM; a blank means no activity. In kind it is cell-based. Particulars: for antimicrobial / antibacterial activity: medium not stated; for Active in DMEM: Table 2, tested in DMEM and RPMI. Here is the method: (§1) The CFU assay is the “gold standard” for evaluating antibiotics. Briefly, bacteria are grown overnight in rich medium, such as LB, and then diluted and grown in log phase for 2-4 hours. Cultures are set up as above, with the initial culture media being 10 mM phosphate buffer/0.03% LB; DMEM or RPMI; or DMEM or RPMI plus 10% serum (fetal calf, human, or mouse). After various periods of time, but generally 3 hours or less, aliquots are removed, diluted in LB at various dilutions, and plated on LB agar plates. Plates are incubated overnight at 37° C. and counted on an automatic colony counter.
In the column “Active in DMEM”, a blank means no activity. MAP stands for multiple antigenic peptide, where a number of identical peptide chains are synthesized and joined to a common core (like a dendrimer).
The peptides listed in Table 2 were tested in DMEM and RPMI, media that approximate blood and tissue conditions in vivo and those that were active under these conditions are listed in the last column (active in DMEM). […] No peptides that were all L-isomer peptides lysed bacteria in DMEM supplemented with serum.
The hydrophobic moment is a measure of amphipathicity and indicates how well the hydrophobic residues fall on one side of the helix while the hydrophilic residues fall on the opposite side is shown in column 7. This was determined using the Membrane Explorer Program (http://blanco.biomol.uci.edu/mpex/). A high number indicates a high hydrophobic moment. Column 8 again (like Table 2) indicates which of these peptides is active in DMEM.

Test [2] concerns Salmonella. Format: cell-based, S. typhimurium. The gist of the method: (§2)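 Single-well growth assay: peptide + bacteria (~5×10^6 CFU/ml) in 10 mM phosphate pH 7.2/0.03% LB, 3 h 37 °C; add LB, overnight; OD600. MIC = lowest conc., no growth; IC50 = 50% growth vs medium.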
The test system of test [3] is bacteria. Description: Activity in serum containing media (10% FCS in DMEM or RPMI). The settings on record: for active in serum containing media: 10% FCS in DMEM or RPMI. In kind it is cell-based. As for the experimental part: as §1
Tests were conducted in low salt concentrations so that active peptide candidates could be identified more readily. It is important for in vivo applications that the present antimicrobial peptides be active in physiological salt concentrations (150 mM) as well as in the presence of other tissue components, such as blood plasma (serum). Serum may contain proteases that destroy peptides; the use of D-amino acids can improve protease resistance. See G12.21. […] Also active were G11.6, G11.26, G11.29, G11.30, G11.34, G11.35, G12.11, G12.19, G12.20 and G12.21. […]

The test system of test [4] is E. coli DH5a. In kind it is cell-based. In short, it runs like this: as §2
Test [5] concerns B. cereus. In kind it is cell-based. In short, it runs like this:
as §2

[6] abbreviates: 10 mM phosphate buffer, pH 7.2, 0.03% LB.

Like-named read-outs stand apart in the source and are kept apart here. Square brackets hold non-standard residues; d marks the D form. Ends that are not written are not given here. Peptide text beside a SMILES is read from it. Bounds are passed on as bounds.

`CSCC[C@@H](NC(=O)[C@H]1CCCN1C(=O)[C@@H](CCCCN)NC(=O)[C@@H](CCCCN)NC(=O)[C@@H](CO)NC(=O)[C@H](NC(=O)[C@@H](CCCCN)NC(=O)[C@H](N)CCCCN)C(C)C)C(=O)N[C@H](CCCCN)C(=O)N[C@H](CCCCN)C(=O)N[C@H](Cc1ccc(O)cc1)C(=O)N[C@H](CCCCN)C(=O)N[C@H](CO)C(=O)N[C@H](CCCCN)C(=O)N[C@H](CCCCN)C(=O)N1CCC[C@@H]1C(=O)N[C@H](CCCCN)C(=O)N[C@H](CCCCN)C(=O)N[C@H](CC(C)C)C(=O)N[C@@H](C(=O)O)C(C)C` [Peptide G12.28, kkvskkpmkkykskkpkklv] (H-[dK][dK][dV][dS][dK][dK][dP][dM][dK][dK][dY][dK][dS][dK][dK][dP][dK][dK][dL][dV]-OH; N-terminus and C-terminus assumed): in test [1], the “antimicrobial / antibacterial activity” value was “inactive peptide”.
In the case of CRRVSRRFMRRC [G11.29 CYC], the “Salmonella MIC” value in test [2] (setting [6]) is 2.8 µM. The IC50 (usually the concentration needed to halve the response being measured) amounted to 1750 nM in test [2] (10 mM phosphate buffer, pH 7.2, 0.03% LB, read-out: Salmonella IC50); 750 nM in test [4] (10 mM phosphate buffer, pH 7.2, 0.03% LB, read-out: E. coli DH5a IC50); 890 nM in test [5] (10 mM phosphate buffer, pH 7.2, 0.03% LB, read-out: B. cereus IC50). Further, the “Active in DMEM” value in test [1] is “YES”. For the same compound, the “active in serum containing media” value in test [3] is recorded as “active”. Also, in test [4] (setting [6]), the “E. coli DH5a MIC” value is 1.4 µM. The “B. cereus MIC” value in test [5] (setting [6]) was 1.39 µM.
RRVSRRPMRRYRSRRPRRLV [Peptide G12.12]: in test [2] (pH 7.2), the 50% inhibitory concentration (IC50) is 210 nM and the “Salmonella MIC” value is 0.35 µM. In addition, the “Active in DMEM” value in test [1] is “YES”. Also, the “active in physiological salt concentrations (150 mM) and presence of serum” value in test [3] is reported as “active in such conditions”. Besides, in test [4] (DH5a, pH 7.2), the “E. coli DH5a MIC” value is 0.35 µM and the IC50 is 210 nM. For the same compound, in test [5] (pH 7.2), the “B. cereus MIC” value worked out at 0.35 µM and inhibition was half-maximal at 210 nM (IC50).
With “QRSVSRAATRVSRTGRSRWRRVSRRFMRR [Peptide G8.9]”, in test [2] (pH 7.2), half-maximal inhibition (IC50) was put at 220 nM and the “Salmonella MIC” value stood at 0.35 µM. The “Active in DMEM” value in test [1] is “YES”. Further, in test [4] (DH5a, pH 7.2), the “E. coli DH5a MIC” value was 0.7 µM and the concentration for half-maximal inhibition (IC50) was found to be 450 nM. In addition, in test [5] (pH 7.2), the “B. cereus MIC” value worked out at 0.7 µM and inhibition was half-maximal at 450 nM (IC50).
Regarding “QRSVSRPPTRVSRTGRSRWRDVSRRFMRR [Peptide G8.12]”, in test [2] (pH 7.2), the IC50 amounted to 210 nM and the “Salmonella MIC” value was 0.35 µM. In test [1], the “Active in DMEM” value is “YES”. Moreover, in test [4] (DH5a, pH 7.2), the “E. coli DH5a MIC” value is 0.35 µM and 210 nM corresponded to half-maximal inhibition (IC50). Besides, in test [5] (pH 7.2), the “B. cereus MIC” value amounted to 0.35 µM and inhibition was half-maximal at 210 nM (IC50).
On to `CSCC[C@@H](NC(=O)[C@H]1CCCN1C(=O)[C@H]1CCCN1C(=O)[C@@H](CCCNC(=N)N)NC(=O)[C@@H](CO)NC(=O)[C@H](NC(=O)[C@@H](CCCNC(=N)N)NC(=O)[C@H](N)CCCNC(=N)N)C(C)C)C(=O)N[C@H](CCCNC(=N)N)C(=O)N[C@H](CCCNC(=N)N)C(=O)N[C@H](Cc1ccc(O)cc1)C(=O)N[C@H](CCCNC(=N)N)C(=O)N[C@H](CO)C(=O)N[C@H](CCCNC(=N)N)C(=O)N[C@H](CCCNC(=N)N)C(=O)N1CCC[C@@H]1C(=O)N[C@H](CCCNC(=N)N)C(=O)N[C@H](CCCNC(=N)N)C(=O)N[C@H](CC(C)C)C(=O)N[C@@H](C(=O)O)C(C)C` [Peptide G12.26, rrvsrppmrryrsrrprrlv] (H-[dR][dR][dV][dS][dR][dP][dP][dM][dR][dR][dY][dR][dS][dR][dR][dP][dR][dR][dL][dV]-OH; N-terminus and C-terminus assumed), for which, in test [2] (pH 7.2), the midpoint of inhibition, the IC50, lay at 100 nM and the “Salmonella MIC” value was determined as 0.3 µM. Moreover, in test [1], the “Active in DMEM” value is “YES” and the “antimicrobial / antibacterial activity” value is on record as “loses some antibacterial activity compared to G12.21”. For the same compound, in test [4] (DH5a, pH 7.2), the “E. coli DH5a MIC” value was “<.078 µM” and the IC50 is < 78 nM. Also, in test [5] (pH 7.2), the “B. cereus MIC” value was 0.35 µM and the IC50 was < 78 nM.
`CC(C)C[C@@H](NC(=O)[C@@H](CCCNC(=N)N)NC(=O)[C@@H](CCCNC(=N)N)NC(=O)[C@H]1CCCN1C(=O)[C@@H](CCCNC(=N)N)NC(=O)[C@@H](CCCNC(=N)N)NC(=O)[C@@H](CO)NC(=O)[C@@H](CCCNC(=N)N)NC(=O)[C@@H](Cc1ccc(O)cc1)NC(=O)[C@@H](CCCNC(=N)N)NC(=O)[C@@H](CCCNC(=N)N)NC(=O)[C@H]1CCCN1C(=O)[C@H]1CCCN1C(=O)[C@H]1CCCN1C(=O)[C@@H](CCCNC(=N)N)NC(=O)[C@@H](CO)NC(=O)[C@H](NC(=O)[C@@H](CCCNC(=N)N)NC(=O)[C@H](N)CCCNC(=N)N)C(C)C)C(=O)N[C@@H](C(=O)O)C(C)C` [Peptide G12.25, rrvsrppprryrsrrprrlv] (H-[dR][dR][dV][dS][dR][dP][dP][dP][dR][dR][dY][dR][dS][dR][dR][dP][dR][dR][dL][dV]-OH; N-terminus and C-terminus assumed): in test [2] (pH 7.2), the IC50 worked out at 100 nM and the “Salmonella MIC” value is 1.25 µM. In addition, in test [1], the “Active in DMEM” value was “YES” and the “antimicrobial / antibacterial activity” value is listed as “has lost much of its antibacterial activity”. In addition, in test [4] (DH5a, pH 7.2), the “E. coli DH5a MIC” value is 0.15 µM and the IC50 is < 78 nM. In addition, in test [5] (pH 7.2), the “B. cereus MIC” value was “<.078 µM” and the IC50 was < 78 nM.
Turning to “GRSRWRRVSRRFMRR [Peptide G14.11, GRSRWRRVSRRFMRR]”, in test [2] (pH 7.2), the IC50 amounted to 440 nM and the “Salmonella MIC” value is 0.65 µM. Moreover, in test [1], the “Active in DMEM” value was “YES”. Also, in test [4] (DH5a, pH 7.2), the “E. coli DH5a MIC” value is 0.7 µM and the IC50 turned out to be 450 nM. In test [5] (pH 7.2), the “B. cereus MIC” value was 0.7 µM and half-maximal inhibition (IC50) was put at 450 nM.
In the case of “RRVSRRFMRRD-NH2 [G11.30 CYC, RRVSRRFMRRD]”, in test [2] (pH 7.2), the IC50 stood at 7700 nM and the “Salmonella MIC” value is >10 µM. The “active in serum containing media” value in test [3] is given as “active”. In addition, in test [4] (DH5a, pH 7.2), the “E. coli DH5a MIC” value came to 5.7 µM and the IC50 is 3500 nM. For the same compound, in test [5] (pH 7.2), the “B. cereus MIC” value is >10 µM and the IC50 is 7550 nM.
With `CSCC[C@@H]1NC(=O)[C@H](Cc2ccccc2)NC(=O)[C@H](CCCCN)NC(=O)[C@H](CCCCN)NC(=O)[C@H](CO)NC(=O)[C@H](C(C)C)NC(=O)[C@H](CCCCN)NC(=O)[C@H](CCCCN)NC(=O)[C@H](CC(N)=O)NC(=O)[C@H](CCCCN)NC(=O)[C@H](CCCCN)NC(=O)[C@H](CCSC)NC(=O)[C@H](Cc2ccccc2)NC(=O)[C@H](CCCCN)NC(=O)[C@H](CCCCN)NC(=O)[C@H](CO)NC(=O)[C@H](C(C)C)NC(=O)[C@H](CCCCN)NC(=O)[C@H](CCCCN)NC(=O)[C@H](CO)NC(=O)CNC(=O)[C@H](CCCCN)NC(=O)[C@H](CCCCN)NC1=O` [G11.32 CYC], in test [2] (pH 7.2), 210 nM corresponded to half-maximal inhibition (IC50) and the “Salmonella MIC” value was 0.35 µM. The “Active in DMEM” value in test [1] is listed as “YES”. In test [4] (DH5a, pH 7.2), the “E. coli DH5a MIC” value worked out at 0.35 µM and half-maximal inhibition (IC50) was put at 200 nM. In test [5] (pH 7.2), the “B. cereus MIC” value was determined as 0.35 µM and the IC50 came to 210 nM.
